{
  "source": "patent US20190282591A1",
  "about": "“FINASTERIDE AND SILDENAFIL COMPOSITIONS AND APPLICATIONS” (BLUE GOOSE DRUGS INC., priority 2018, published 2019)",
  "origin": "cited, not measured here",
  "key": {"[1]": {"target": "T1, 5α-reductase type I isoenzyme (Homo sapiens, UniProt P18405)", "T1 sequence (P18405 1-259)": "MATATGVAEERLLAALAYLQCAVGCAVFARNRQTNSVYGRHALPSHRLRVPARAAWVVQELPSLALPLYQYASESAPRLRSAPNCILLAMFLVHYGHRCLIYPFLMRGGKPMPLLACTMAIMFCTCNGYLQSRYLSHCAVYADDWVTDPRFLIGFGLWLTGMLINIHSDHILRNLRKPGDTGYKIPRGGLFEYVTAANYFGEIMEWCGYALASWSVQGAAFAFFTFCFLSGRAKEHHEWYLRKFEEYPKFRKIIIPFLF", "settings": "5α-reductase type I vs type II"}, "[2]": {"tested_on": "dihydrotestosterone (DHT) levels"}, "5β-reductase (AKR1D1)": {"target": "T2, 5β-reductase (AKR1D1) (Homo sapiens, UniProt P51857)", "T2 sequence (P51857 1-326)": "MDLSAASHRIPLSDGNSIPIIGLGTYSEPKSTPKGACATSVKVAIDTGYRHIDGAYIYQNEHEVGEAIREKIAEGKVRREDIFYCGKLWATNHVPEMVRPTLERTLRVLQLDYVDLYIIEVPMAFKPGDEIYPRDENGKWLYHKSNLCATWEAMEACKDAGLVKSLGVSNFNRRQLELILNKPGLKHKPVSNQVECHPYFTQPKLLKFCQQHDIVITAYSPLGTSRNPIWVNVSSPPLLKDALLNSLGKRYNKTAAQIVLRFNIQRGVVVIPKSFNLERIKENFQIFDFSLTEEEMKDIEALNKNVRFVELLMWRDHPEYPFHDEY", "settings": "compared with 5α-reductase type I"}, "[3]": {"settings": "active metabolite accounts for about one-half"}},
  "data": [
    {"smiles": "CC(C)(C)NC(=O)[C@H]1CC[C@H]2[C@@H]3CC[C@H]4NC(=O)C=C[C@]4(C)[C@H]3CC[C@]12C", "note": "[finasteride, (5α,17β)-N-(1,1-dimethylethyl)-3-oxo-4-azaandrost-1-ene-17-carboxamide]", "values": [
      {"measurement": "less inhibitory potency for type I as compared to type II", "setting": "[1]", "result": "more than 100 fold"},
      {"measurement": "decrease in prostate DHT levels", "setting": "[2]; prostate, where type II isoenzyme predominates", "result": "85 to 90", "unit": "%"},
      {"measurement": "decrease in serum DHT levels", "setting": "[2]; serum", "result": "65 to 70", "unit": "%"},
      {"measurement": "affinity for 5β-reductase relative to 5α-reductase", "setting": "5β-reductase (AKR1D1)", "result": "an order of magnitude less than 5α-reductase type I"}
    ]},
    {"smiles": "C[C@]12C=CC(=O)N[C@@H]1CC[C@@H]1[C@@H]2CC[C@]2(C)[C@@H](C(=O)Nc3cc(C(F)(F)F)ccc3C(F)(F)F)CC[C@@H]12", "note": "[dutasteride]", "values": [
      {"measurement": "reduction of DHT levels in the entire body", "setting": "[2]; entire body", "result": "more than 99%"}
    ]},
    {"smiles": "CCCc1nn(C)c2c(=O)[nH]c(-c3cc(S(=O)(=O)N4CCN(C)CC4)ccc3OCC)nc12.O=C(O)CC(O)(CC(=O)O)C(=O)O", "note": "[Sildenafil citrate, 5-[2-ethoxy-5-(4-methylpiperazin-1-yl)sulfonylphenyl]-1-methyl-3-propyl-4H-pyrazolo[4,3-d]pyrimidin-7-one; 2-hydroxypropane-1,2,3-tricarboxylic acid]", "values": [
      {"measurement": "bioavailability after oral administration", "setting": "[3]", "result": 40, "unit": "%"}
    ]}
  ]
}
